ChEMBL document CHEMBL5126640, “Sanggenon C Suppresses Tumorigenesis of Gastric Cancer by Blocking ERK-Drp1-Mediated Mitochondrial Fission” (J Nat Prod, 2022)
The source made the active and inactive calls. No cut-off for these calls is given here.

Key:
AGS [1] = assay: Antiproliferative activity against human AGS cells assessed as reduction in cell growth measured after 24 hrs by CCK8 assay; assay type: functional, cell-based
AGS [2] = assay: Inhibition of colony formation of human AGS cells assessed as reduction in colony number at 0 to 10 uM measured after 24 hrs by crystal violet staining assay; assay type: functional, cell-based; settings: dose 0-10 µM
HGC-27 [3] = assay: Inhibition of colony formation of human HGC-27 cells assessed as reduction in colony number at 0 to 10 uM measured after 24 hrs by crystal violet staining assay; assay type: functional, cell-based; settings: dose 0-10 µM
HGC-27 [4] = assay: Induction of cell cycle arrest in human HGC-27 cells assessed as accumulation of cells at G0/G1 phase at 10 uM incubated for 24 hrs propidium iodide staining-based flow cytometric analysis (reference value: 45.21%); assay type: functional
AGS [5] = assay: Induction of cell cycle arrest in human AGS cells assessed as accumulation of cells at G0/G1 phase at 6 uM incubated for 24 hrs propidium iodide staining-based flow cytometric analysis (reference value: 46.51%); assay type: functional
AGS [6] = assay: Induction of cell cycle arrest in human AGS cells assessed as accumulation of cells at G0/G1 phase at 10 uM incubated for 24 hrs propidium iodide staining-based flow cytometric analysis (reference value: 46.51%); assay type: functional
HGC-27 [7] = assay: Induction of cell cycle arrest in human HGC-27 cells assessed as decrease in CDK4 level at 0 to 10 uM by Western blot analysis; assay type: functional, cell-based; settings: dose 0-10 µM
AGS [8] = assay: Induction of cell cycle arrest in human AGS cells assessed as decrease in CDK4 level at 0 to 10 uM by Western blot analysis; assay type: functional, cell-based; settings: dose 0-10 µM
AGS [9] = assay: Induction of cell cycle arrest in human AGS cells assessed as decrease in Cyclin D1 level at 0 to 10 uM by Western blot analysis; assay type: functional, cell-based; settings: dose 0-10 µM
HGC-27 [10] = assay: Induction of apoptosis in human HGC-27 cells assessed as early apoptotic cells at 6 uM measured after 24 hrs by AnnexinV-FITC/PI staining based flowcytometry method (reference value: 3.3%); assay type: functional
HGC-27 [11] = assay: Induction of apoptosis in human HGC-27 cells assessed as late apoptotic cells at 10 uM measured after 24 hrs by AnnexinV-FITC/PI staining based flowcytometry method (reference value: 5.4%); assay type: functional
HGC-27 [12] = assay: Induction of apoptosis in human HGC-27 cells assessed as necrotic cells at 10 uM measured after 24 hrs by AnnexinV-FITC/PI staining based flowcytometry method (reference value: 0.2%); assay type: functional
AGS [13] = assay: Induction of apoptosis in human AGS cells assessed as early apoptotic cells at 8 uM measured after 24 hrs by AnnexinV-FITC/PI staining based flowcytometry method (reference value: 1.2%); assay type: functional
AGS [14] = assay: Induction of apoptosis in human AGS cells assessed as late apoptotic cells at 6 uM measured after 24 hrs by AnnexinV-FITC/PI staining based flowcytometry method (reference value: 3.4%); assay type: functional
AGS [15] = assay: Induction of apoptosis in human AGS cells assessed as late apoptotic cells at 8 uM measured after 24 hrs by AnnexinV-FITC/PI staining based flowcytometry method (reference value: 3.4%); assay type: functional
AGS [16] = assay: Induction of apoptosis in human AGS cells assessed as necrotic cells at 6 uM measured after 24 hrs by AnnexinV-FITC/PI staining based flowcytometry method (reference value: 0.2%); assay type: functional
AGS [17] = assay: Induction of apoptosis in human AGS cells assessed as necrotic cells at 8 uM measured after 24 hrs by AnnexinV-FITC/PI staining based flowcytometry method (reference value: 0.2%); assay type: functional
AGS [18] = assay: Induction of apoptosis in human AGS cells assessed as necrotic cells at 10 uM measured after 24 hrs by AnnexinV-FITC/PI staining based flowcytometry method (reference value: 0.2%); assay type: functional
HGC-27 [19] = assay: Induction of apoptosis in human HGC-27 cells assessed as increase in cleaved caspase-9 level at 0 to 10 uM by Western blot analysis; assay type: functional, cell-based; settings: dose 0-10 µM
AGS [20] = assay: Induction of apoptosis in human AGS cells assessed as increase in cleaved caspase-3 level at 0 to 10 uM by Western blot analysis; assay type: functional, cell-based; settings: dose 0-10 µM
HGC-27 [21] = assay: Induction of mitochondrial dysfunction in human HGC-27 cells assessed as decrease in mitochondrial membrane potential measured after 24 hrs by JC-1 staining based flow cytometry; assay type: functional, cell-based; settings: DDE = dose-dependent effect
AGS [22] = assay: Induction of mitochondrial dysfunction in human AGS cells assessed as decrease in mitochondrial membrane potential measured after 24 hrs by JC-1 staining based flow cytometry; assay type: functional, cell-based; settings: DDE = dose-dependent effect
HGC-27 [23] = assay: Induction of apoptosis in human HGC-27 cells assessed as upregulation of Bax level at 0 to 10 uM by Western blot analysis; assay type: functional, cell-based; settings: dose 0-10 µM
HGC-27 [24] = assay: Inhibition of mitochondrial fission in human HGC-27 cells assessed as reduction in punctiform mitochondria at 0 to 6 uM measured after 24 hrs by mitotracker based confocal microscopy; assay type: functional; settings: dose 0-6 µM
HGC-27 [25] = assay: Inhibition of mitochondrial fission in human HGC-27 cells assessed as reduction in mitochondrial elongated fragments at 0 to 6 uM measured after 24 hrs by mitotracker based confocal microscopy; assay type: functional, cell-based; settings: dose 0-6 µM
AGS [26] = assay: Induction of apoptosis in human AGS cells assessed as viable cells measured after 24 hrs by AnnexinV-FITC/PI staining based flow cytometry method (reference value: 95.4 %); assay type: functional
HGC-27 [27] = assay: Inhibition of mitochondrial fission in human HGC-27 cells assessed as reduction in ATP content at 0 to 10 uM measured after 24 hrs by microplate reader assay; assay type: functional, cell-based; settings: dose 0-10 µM
HGC-27 [28] = assay: Induction of apoptosis in human HGC-27 cells assessed as late apoptotic cells measured after 24 hrs by AnnexinV-FITC/PI staining based flow cytometry method (reference value: 1.6%); assay type: functional
HGC-27 [29] = assay: Induction of apoptosis in human HGC-27 cells assessed as viable cells measured after 24 hrs by AnnexinV-FITC/PI staining based flow cytometry method (reference value: 96.6%); assay type: functional
AGS [30] = assay: Induction of apoptosis in human AGS cells transfected with pcDNA3.1-Drp1 plasmid to overexpress DRP1 assessed as viable cells and measured after 24 hrs by AnnexinV-FITC/PI staining based flow cytometry method (reference value: 95.6 %); assay type: functional
AGS [31] = assay: Inhibition of ERK signalling pathway in human AGS cells assessed as downregulation of p-ERK levels at 0 to 10 uM and measured after 24 hrs by western blot analysis; assay type: cell-based; settings: dose 0-10 µM
[32] = Toxicity in nude mouse xenografted with human AGS cells assessed as effect on body weight at 10 to 20 mg/kg, ip administered every other day and monitored every 3 days; assay type: organism-based; settings: in vivo, 72 h, dose 10-20 mg/kg, time 3 day
[33] = Toxicity in nude mouse xenografted with human AGS cells assessed as effect on liver morphology at 10 to 20 mg/kg, ip administered every other day and monitored every 3 days by Hematoxyin-eosin staining based analysis; assay type: organism-based; settings: in vivo, 72 h, dose 10-20 mg/kg, time 3 day
[34] = Toxicity in nude mouse xenografted with human AGS cells assessed as effect on alanine aminotransferase level at 10 to 20 mg/kg, ip administered every other day and monitored every 3 days; assay type: organism-based; settings: in vivo, 72 h, dose 10-20 mg/kg, time 3 day
AGS [35] = assay: Antitumor activity against human AGS cells xenografted in nude mouse assessed as suppression of tumor burden at 10 to 20 mg/kg, ip administered every other day and monitored every 3 days; assay type: functional, organism-based; settings: dose 10-20 mg/kg, time 3.0 day

For `CC(C)=CCC12Oc3cc(O)ccc3C1(O)Oc1cc(O)c([C@H]3C=C(C)C[C@H](c4ccc(O)cc4O)[C@H]3C(=O)c3ccc(O)cc3O)c(O)c1C2=O` (stereo not given in full), the IC50 (AGS [1]) was 9.86 µM, the inhibition (AGS [2]) was “Active” and the inhibition (HGC-27 [3]) was “Active”. The Activity (HGC-27 [4]) was 64.2%, the Activity (AGS [5]) was 54.7% and the Activity (AGS [6]) was 55.9%. For the same compound, the Activity (HGC-27 [7]) was “Active”, the Activity (AGS [8]) was “Active” and the Activity (AGS [9]) was “Active”. The Activity (HGC-27 [10]) was 4.2%, the Activity (HGC-27 [11]) was 15.9% and the Activity (HGC-27 [12]) was 1.3%. The Activity (AGS [13]) was 2.1%, the Activity (AGS [14]) was 7.9% and the Activity (AGS [15]) was 7.9%. The Activity (AGS [16]) was 0.2%, the Activity (AGS [17]) was 0.3% and the Activity (AGS [18]) was 0.3%. For the same compound, the Activity (HGC-27 [19]) was “Active”, the Activity (AGS [20]) was “Active” and the Activity (HGC-27 [21]) was “Dde”. The Activity (AGS [22]) was “Dde”, the Activity (HGC-27 [23]) was “Active” and the inhibition (HGC-27 [24]) was “Active”. The inhibition (HGC-27 [25]) was “Active”, the Activity (AGS [26]) was 88.8% and the inhibition (HGC-27 [27]) was “Active”. It also gave an Activity (HGC-27 [28]) of 3.9%, an Activity (HGC-27 [29]) of 91.3% and an Activity (AGS [30]) of 90.3%. For the same compound, the inhibition (AGS [31]) was “Active”, the Activity [32] was “Non-Toxic” and the Activity [33] was “Non-Toxic”. For the same compound, the Activity [34] was “Non-Toxic” and the Activity (AGS [35]) was “Active”.
